Read-outs that look alike come from different tables or passages of the source.
Tests used:
[1] = Pharmacokinetic study of phosphosulindac amide and sulindac, single oral dose; assay type: in vivo, mice; settings: mouse, plasma, label = analyte
[2] = Pharmacokinetics after inhalational administration of PS; assay type: in vivo, mice; settings: after 8 min inhalation, label = analyte
[3] = system: U87 cells; assay: 24-h growth inhibition of U87 glioblastoma cells; assay type: cell-based; settings: Homo sapiens, U-87 MG; U87, 24 h
Method: U87 cells were treated with sulindac and ibuprofen as well as with the compounds. U87 is a human primary glioblastoma cell line, formally known as U-87 MG. This cell line has epithelial morphology, and is one of the most frequently used glioblastoma cell lines.

[4] = system: A549 human non-small lung cancer cells; assay: Orthotopic A549 lung tumor model in nude mice; assay type: in vivo; settings: 200 mg/kg once a week for 8 weeks
[5] = system: A549 cells; assay: Cell proliferation by BrdU staining; assay type: cell-based, human; settings: 60 μM (indomethacin equimolar)
[6] = system: SW480 cells; assay: Cell cycle by PI staining; assay type: cell-based, human; settings: 1×IC50 PTI; indomethacin at equimolar concentration; control 56.8
[7] = system: SW480 colon cancer cells; assay: SW480 colon cancer xenografts, prevention protocol, PTI; assay type: in vivo, mice; settings: oral gavage; PTI 10 mg/kg/d, indomethacin 2 mg/kg/d; end of study
[8] = system: PGE2 production; assay: PGE2 production by A549 cells; assay type: cell-based, human
[9] = mouse, in vivo, ip
[10] = 66 mg/kg, single oral dose of sulindac equimolar to PSA, read-out: AUC0-24 h, sulindac administration
[11] = BALB/c nude, mouse, inhaled or intranasal, plasma

Q: With `CC1=C(CC(=O)O)c2cc(F)ccc2/C1=C\c1ccc([S+](C)[O-])cc1` (centres unmarked) [Sulindac] as the molecule, how does the AUC(0-t) [1, 10] read?
A: 385 µM·h

Q: And the AUC [2, 11]?
A: 49.5 µM·h

Q: And the IC50 [3]?
A: ≥ 1000 µM

Q: For `CC(C)Cc1ccc(C(C)C(=O)O)cc1` (centres unmarked) [Ibuprofen, reference compound], which “reduction based on lung tumor weight / lung weight” value [4] is on record?
A: 19%

Q: And the “reduction of lung cancer based on fluorescence” value [4]?
A: 57%

Q: What about the IC50 [3] of the same molecule?
A: ≥ 1000 µM

Q: What does the source list for `COc1ccc2c(c1)c(CC(=O)O)c(C)n2C(=O)c1ccc(Cl)cc1` [Indomethacin, indomethacin, reference compound]?
A: decrease of proportion of BrdU positive cells [5]: 15%; proportion of cells in G0/G1 phase [6]: 57.7%; reduction of tumor growth [7]: no significant effect; PGE2 levels induced by the calcium ionophore A23187 [8]: prevented the increase in PGE2 levels; AUC0-24 h (for PTI: PTI plus its metabolite) [9]: 500 µM·h; peak plasma level [9]: 127 µM; time of peak plasma level [9]: 1 h

Q: With `CSc1ccc(/C=C2/C(C)=C(CC(=O)O)c3cc(F)ccc32)cc1` [Sulindac sulfide 146, sulindac sulfide] as the molecule, how does the AUC(0-t) [1, 10] read?
A: 691 µM·h

Q: And the AUC(0-t) ([1]; single oral dose 100 mg/kg PSA, read-out: AUC0-24 h, PSA administration)?
A: 17.9 µM·h

Q: And the AUC [2, 11]?
A: 66.9 µM·h

Q: What about the Tmax ([2]; lung) of the same molecule?
A: 4 h

Q: What about the Tmax ([2]; plasma) of the same molecule?
A: 4 h

Q: With `CC1=C(CC(=O)O)c2cc(F)ccc2/C1=C\c1ccc(S(C)(=O)=O)cc1` [Sulindac sulfone 147, sulindac sulfone] as the molecule, how does the AUC(0-t) [1, 10] read?
A: 93.4 µM·h

Q: What about the Tmax ([2]; BALB/c nude, mouse, inhaled or intranasal, lung, read-out: Tmax) of the same molecule?
A: 8 h

Q: What about the AUC [2, 11] of the same molecule?
A: 142 µM·h

Q: What about the Cmax [2, 11] of the same molecule?
A: 10.4 µM

Q: What about the Tmax ([2]; BALB/c nude, mouse, inhaled or intranasal, plasma, read-out: Tmax) of the same molecule?
A: 8 h

Reference: US20130225529A1, “PHOSPHO-ESTER DERIVATIVES AND USES THEREOF” (priority 2012, published 2013)
